# From patent US7442802B2, “Cyclooxygenase-2 selective inhibitors, compositions and methods of use” (NitroMed, Inc., priority 2002, dated 2008)
# Like-named read-outs stand apart in the source and are kept apart here.
# Columns and labels:
# COX-1 = target: T1, COX-1 (Homo sapiens, UniProt P23219); test: Human COX-1 enzyme activity in human whole blood (A23187-stimulated, thromboxane B2 EIA); format: cell-based; settings: for inhibition at 100 µM: read-out: COX-1 Inhibition (% at 100 μM)
# T1 construct: endogenous in cells; host or cells: heparinised human whole blood from donors, stimulated with the calcium ionophore A23187
# Experimental: (§1) The blood was transported to the laboratory on ice packs and used within 1.5 hours of collection. Upon receipt in the laboratory, the blood was allowed to come to room temperature for 15 minutes prior to distribution in 1 mL aliquots per well of 24 well tissue culture plates. […] Test compounds were dissolved in DMSO, at 1000 fold the final desired concentration, and further diluted, as indicated, in DMSO. One μL of each dilution of the test compound was added per well, in duplicate wells; wells not receiving test compound (e.g., basal, background or control wells) received 1 μL DMSO. […] Louis, Mo., Catalogue No. […] Louis, Mo., Catalogue No. […] (Again, basal, background or control wells not stimulated with A23187 received 1 μL of DMSO.) At 5 hours after the addition of the test compound, all incubations were terminated by placement on ice and the addition of 2 mM EGTA (100 μL of 20 mM EGTA, tetrasodium, in PBS (phosphate buffered saline) without Ca^++ and Mg^++, pH 7.2)). […] One hundred μL of plasma was removed from each blood sample and added to 1 mL of methanol in new 15 mL polypropylene centrifuge tubes, vortexed, and stored overnight at -20° C. […] The samples were assayed for thromboxane B2 using EIA kits supplied by Cayman Chemical Co. […] The % inhibition for COX-1 and COX-2 enzyme activity in human whole blood by the test compounds, at the indicated concentrations, are given in Table 1.
# COX-2 = target: T2, COX-2 (Homo sapiens, UniProt P35354); test: Human COX-2 enzyme activity in human whole blood (LPS-induced, thromboxane B2 EIA); format: cell-based; settings: for inhibition at 1 µM: read-out: COX-2 Inhibition (% at 1 μM); for inhibition at 10 µM: read-out: COX-2 Inhibition (% at 10 μM)
# T2 construct: To induce COX-2, lipopolysaccharide (LPS) from E. coli; endogenous in cells; host or cells: heparinised human whole blood from donors, with COX-2 induced by E. coli LPS
# T2 sequence (P35354 18-604): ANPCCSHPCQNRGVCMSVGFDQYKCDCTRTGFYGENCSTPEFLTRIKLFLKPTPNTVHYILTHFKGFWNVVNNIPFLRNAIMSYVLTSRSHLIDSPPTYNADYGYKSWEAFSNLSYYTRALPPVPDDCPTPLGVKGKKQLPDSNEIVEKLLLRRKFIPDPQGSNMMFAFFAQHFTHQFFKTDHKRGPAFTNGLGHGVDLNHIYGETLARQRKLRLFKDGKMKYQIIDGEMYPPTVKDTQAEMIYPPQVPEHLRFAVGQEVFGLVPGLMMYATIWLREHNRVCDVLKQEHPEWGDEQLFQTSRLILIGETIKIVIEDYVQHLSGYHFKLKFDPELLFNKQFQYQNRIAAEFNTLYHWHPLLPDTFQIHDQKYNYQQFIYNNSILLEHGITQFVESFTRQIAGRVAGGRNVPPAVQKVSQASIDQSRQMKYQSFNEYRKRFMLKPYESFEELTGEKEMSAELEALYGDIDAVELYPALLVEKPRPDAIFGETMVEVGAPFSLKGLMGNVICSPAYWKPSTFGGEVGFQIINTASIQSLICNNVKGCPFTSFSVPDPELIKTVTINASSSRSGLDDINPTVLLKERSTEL
# Experimental: as §1
# [1] = 100 μM, human whole blood, A23187 stimulation
# [2] = 1 μM, human whole blood, LPS induction
# [3] = 10 μM, human whole blood, LPS induction
# T1 sequence (P23219 24-599): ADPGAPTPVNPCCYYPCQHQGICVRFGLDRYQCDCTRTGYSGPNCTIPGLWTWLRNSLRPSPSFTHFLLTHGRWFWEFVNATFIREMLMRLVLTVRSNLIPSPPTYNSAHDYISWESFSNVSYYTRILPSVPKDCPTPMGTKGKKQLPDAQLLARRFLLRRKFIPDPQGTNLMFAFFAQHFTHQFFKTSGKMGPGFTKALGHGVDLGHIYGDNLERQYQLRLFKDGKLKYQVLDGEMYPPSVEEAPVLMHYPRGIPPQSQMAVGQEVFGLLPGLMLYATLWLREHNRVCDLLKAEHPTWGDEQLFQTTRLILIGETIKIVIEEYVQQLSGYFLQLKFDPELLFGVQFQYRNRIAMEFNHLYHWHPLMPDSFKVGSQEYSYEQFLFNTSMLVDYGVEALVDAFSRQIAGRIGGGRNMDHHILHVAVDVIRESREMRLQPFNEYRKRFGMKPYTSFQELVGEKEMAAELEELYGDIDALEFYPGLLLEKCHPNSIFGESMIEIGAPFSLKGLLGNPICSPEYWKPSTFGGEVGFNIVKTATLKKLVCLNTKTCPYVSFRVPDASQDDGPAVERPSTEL
inhibition at 100 µM (COX-1; [1]) [%],inhibition at 1 µM (COX-2; [2]) [%],inhibition at 10 µM (COX-2; [3]) [%],Compound,also measured
,,,4-(5-(4-Chlorophenyl)-3-((3-hydroxypropoxy)methyl)pyrazolyl)-benzenesulfonamide [Example 36b],COX-1 Inhibition (% at 100 μM) (COX-1; [1]): 30%; COX-2 Inhibition (% at 1 μM) (COX-2; [2]): 30%; COX-2 Inhibition (% at 10 μM) (COX-2; [3]): 55%
,,,4-(5-(4-Chlorophenyl)-3-((3-hydroxypropoxy)methyl)pyrazolyl)benzenesulfonamide [Example 28a],COX-1 Inhibition (% at 100 μM) (COX-1; [1]): 30%; COX-2 Inhibition (% at 1 μM) (COX-2; [2]): 30%; COX-2 Inhibition (% at 10 μM) (COX-2; [3]): 55%
,,,4-(5-(Chlorophenyl)-3-((3-(nitrooxy)propoxy)methyl)benzene-sulfonamide [Example 36c],COX-1 Inhibition (% at 100 μM) (COX-1; [1]): 55%; COX-2 Inhibition (% at 1 μM) (COX-2; [2]): 40%; COX-2 Inhibition (% at 10 μM) (COX-2; [3]): 80%
,,,CS(=O)(=O)c1ccc(-c2cc(CO)nn2C2CCCCCCC2)cc1 [Example 1g],COX-1 Inhibition (% at 100 μM) (COX-1; [1]): 35%; COX-2 Inhibition (% at 1 μM) (COX-2; [2]): 35%; COX-2 Inhibition (% at 10 μM) (COX-2; [3]): 75%
,,,CS(=O)(=O)c1ccc(-c2cc(CO[N+](=O)[O-])nn2C2CCCCCCC2)cc1 [Example 1h],COX-1 Inhibition (% at 100 μM) (COX-1; [1]): 60%; COX-2 Inhibition (% at 1 μM) (COX-2; [2]): 50%; COX-2 Inhibition (% at 10 μM) (COX-2; [3]): 90%
40,10,25,"CS(=O)(=O)c1ccc(-c2cc(CO)nn2C2CCCCCC2)cc1 [Example 2c, 1-(1-Cycloheptyl-3-(hydroxymethyl)pyrazol-5-yl)-4-(methylsulfonyl)benzene]",
0,60,90,"CS(=O)(=O)c1ccc(-c2cc(C(=O)CCCO)nn2C2CCCCC2)cc1 [Example 3e, 1-(1-Cyclohexyl-5-(4-(methylsulfonyl)phenyl)pyrazol-3-yl)-4-hydroxybutan-1-one]",
,,,"CS(=O)(=O)c1ccc(-c2cc(/C=C\CCO)nn2C2CCCCC2)cc1 [Example 4e, 1-(3-((1Z)-4-(Hydroxy)but-1-enyl)-1-cyclohexylpyrazol-5-yl-4-methylsulfonyl)benzene]",COX-1 Inhibition (% at 100 μM) (COX-1; [1]): 45%; COX-2 Inhibition (% at 1 μM) (COX-2; [2]): 30%; COX-2 Inhibition (% at 10 μM) (COX-2; [3]): 70%
25,20,80,"CS(=O)(=O)c1ccc(-c2cc(COCCCO)nn2-c2ccccc2)cc1 [Example 5d, 4-(3-((3-Hydroxypropoxy)methyl)-1-phenylpyrazol-5-yl)-1-(methylsulfonyl)benzene]",
40,50,85,"CS(=O)(=O)c1ccc(-c2cc(C(F)(F)OCCCO)nn2-c2ccccc2)cc1 [Example 6e, 1-(3-(Difluoro(3-hydroxypropoxy)methyl)-1-phenylpyrazol-5-yl)-4-(methylsulfonyl)benzene]",
80,50,95,"CS(=O)(=O)c1ccc(-c2cc(C(F)(F)OCCCO[N+](=O)[O-])nn2-c2ccccc2)cc1 [Example 6f, 1-(3-(Difluoro(3-(nitrooxy)propoxy)methyl)-1-phenylpyrazol-5-yl)-4-(methylsulfonyl)benzene]",
80,25,95,"CS(=O)(=O)c1ccc(-c2cc(COCCCO)nn2-c2ccc(Cl)cc2)cc1 [Example 7d, 1-(1-(4-Chlorophenyl)-3-((3-hydroxypropoxy)methyl)pyrazol-5-yl)-4-(methylsulfonyl)benzene]",
90,65,100,"CS(=O)(=O)c1ccc(-c2cc(COCCCO[N+](=O)[O-])nn2-c2ccc(Cl)cc2)cc1 [Example 7e, 1-(1-(4-Chlorophenyl)-3-((3-(nitrooxy)propoxy)methyl)pyrazol-5-yl)-4-(methylsulfonyl)benzene]",
70,20,90,"Cc1ccc(-n2nc(COCCCO)cc2-c2ccc(S(C)(=O)=O)cc2)cc1 [Example 8d, 1-(3-((3-Hydroxypropoxy)methyl)-1-(4-methylphenyl)pyrazol-5-yl)-4-(methylsulfonyl)benzene]",
90,50,95,"Cc1ccc(-n2nc(COCCCO[N+](=O)[O-])cc2-c2ccc(S(C)(=O)=O)cc2)cc1 [Example 8e, 1-(1-(4-methylphenyl)-3-((3-(nitrooxy)propoxy)methyl)pyrazol-5-yl)-4-(methylsulfonyl)benzene]",
40,30,85,"CS(=O)(=O)c1ccc(-c2cc(COCCCO)nn2-c2ccc(C(F)(F)F)cc2)cc1 [Example 9d, 1-(3-((3-Hydroxypropoxy)methyl)-1-(4-(trifluoromethyl)phenyl)pyrazol-5-yl)-4-(methylsulfonyl)benzene]",
45,60,100,"CS(=O)(=O)c1ccc(-c2cc(COCCCO[N+](=O)[O-])nn2-c2ccc(C(F)(F)F)cc2)cc1 [Example 9e, 4-(Methylsulfonyl)-1-(3-((3-(nitrooxy)propoxy)methyl)-1-(4-(trifluoromethyl)phenyl)pyrazol-5-yl)benzene]",
100,25,100,"COc1ccc(-n2nc(COCCCO)cc2-c2ccc(S(C)(=O)=O)cc2)cc1 [Example 10d, 1-(3-((3-Hydroxypropoxy)methyl)-1-(4-methoxyphenyl)pyrazol-5-yl)-4-(methylsulfonyl)benzene]",
,,,"COc1ccc(-n2nc(COCCCO[N+](=O)[O-])cc2-c2ccc(S(C)(=O)=O)cc2)cc1[N+](=O)[O-] [Example 10e, 1-(1-(4-Methoxy-3-nitrophenyl)-3-((3-(nitrooxy)propoxy)methyl)pyrazol-5-yl)-4-(methylsulfonyl)benzene]",inhibition at 100 µM (COX-1): 85%; inhibition at 1 µM (COX-2): 70%; inhibition at 10 µM (COX-2): 100%
,,,CS(=O)(=O)c1ccc(-c2cc(/C=C\CCO)nn2-c2ccccc2)cc1 [Example 11d],COX-1 Inhibition (% at 100 μM) (COX-1; [1]): 25%; COX-2 Inhibition (% at 1 μM) (COX-2; [2]): 0%; COX-2 Inhibition (% at 10 μM) (COX-2; [3]): 30%
90,95,100,"CS(=O)(=O)c1ccc(-c2cc(/C=C\CCO[N+](=O)[O-])nn2-c2ccccc2)cc1 [Example 11e, 1-(3-((1Z)-4-(Nitrooxy)but-1-enyl)-1-phenylpyrazol-5-yl)-4-(methylsulfonyl)benzene]",
85,55,90,"CS(=O)(=O)c1ccc(-c2cc(/C=C/CCO[N+](=O)[O-])nn2-c2ccccc2)cc1 [Example 11f, 1-(3-((1E)-4-(Nitrooxy)but-1-enyl)-1-phenylpyrazol-5-yl)-4-(methylsulfonyl)benzene]",
0,15,45,"Cc1ccc(-n2nc(C(=O)CCCO)cc2-c2ccc(S(C)(=O)=O)cc2)cc1 [Example 12d, 4-Hydroxy-1-(1-(4-methylphenyl)-5-(4-(methylsulfonyl)phenyl)pyrazol-3-yl)butan-1-one]",
0,25,25,"CS(=O)(=O)c1ccc(-c2cc(C(=O)CCCO)nn2-c2ccc(F)cc2)cc1 [Example 13d, 1-(1-(4-Fluorophenyl)-5-(4-(methylsulfonyl)phenyl)pyrazol-3-yl)-4-hydroxybutan-1-one]",
0,15,70,"CS(=O)(=O)c1ccc(-c2cc(C(=O)CCCO)nn2-c2ccc(Br)cc2)cc1 [Example 14d, 1-(1-(4-Bromophenyl)-5-(4-(methylsulfonyl)phenyl)pyrazol-3-yl)-4-hydroxybutan-1-one]",
